Reference: patent US20240294551A1 (AMGEN INC., priority 2022, published 2024)
Read-outs that look alike come from different tables or passages of the source.

Assays:
[1] = target: His-tagged KRAS G12D protein (Homo sapiens (Human), UniProt P01116, G12D); test: KRAS G12D TR-FRET Assay; type: binding
How it was run: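 His-tagged KRAS G12D (diluted to 20 nM in pH 7.4 HEPES buffer with 10 mM MgCl2 and 10 μM GDP) was preincubated with titrated compound for 30 min at room temperature. Biotinylated KRPep-2d peptide (diluted to 20 nM) was then added for 1 h, and displacement was monitored by TR-FRET.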

[2] = target: GDP-bound KRAS protein (aa 1-169), containing both G12D and C118A amino acid substitutions (Homo sapiens (Human), UniProt P01116, C118A/G12D); test: KRAS G12D Coupled Nucleotide Exchange Assay; type: biochemical
[3] = test system: Phosphorylation of ERK1/2 in AsPC-1 cells; test: Phospho-ERK1/2 MSD Assay; type: cell-based, human; details: Homo sapiens, ASPC1, 2 h
How it was run: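 Read-out: MSD electrochemiluminescent detection of phosphorylated ERK1/2 in whole-cell lysates, fitted to a 4-parameter logistic curve for IC50. Prior to lysis, AsPC-1 cells (25,000 per well) received a 2 h compound dose-response at 37 °C.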

AsPC-1 cells = test: AsPC-1 CTG Assay (CellTiter-Glo cell viability); type: cell-based, human; details: Homo sapiens, ASPC1, 72 h, first value of the cell, read-out: G12D/C/V Cell Proliferation CTG (72 h) AsPC-1
How it was run: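 Human pancreatic AsPC-1 or colon SW620 cells in RPMI 1640 with 10% FBS, seeded overnight, then exposed to serially diluted compound for 72 h at 37 °C. CellTiter-Glo luminescence normalized to DMSO control; IC50 from a 4-parameter logistic model.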

MIA PaCa-2 cells = test: MIA PaCa-2 CTG Assay (CellTiter-Glo cell viability); type: cell-based, human; details: Homo sapiens, second value of the cell
Description: MIA PaCa-2 CTG Assay Protocol
MIA PaCa-2 (human pancreatic carcinoma; ATCC CRL-1420) cells were cultured in RPMI 1640 medium containing 10% fetal bovine serum and 1× penicillin/streptomycin/L-glutamine. Cells were seeded in 384-well plates at a density of 1.67E+04 cells/mL and incubated at 37° C., 5% CO2, overnight. Serially-diluted compound or DMSO was added to the cells, and plates were incubated at 37° C., 5% CO2 for 72 h. Cell viability was measured using a CellTiter-Glo® Luminescent Cell Viability Assay kit (Promega) according to the manufacturer's protocol. The luminescence signal of treated samples was normalized to DMSO control, and data were analyzed using a 4-parameter logistic model to calculate IC50 values.

[4] = read-out: KRAS G12D Binding IC50
[5] = read-out: KRAS G12D Coupled Exchange IC50
[6] = read-out: 2 h p-ERK (AsPC-1 cells), IC50
[7] = Mia PaCa-2, 72 h, read-out: G12D/C/V Cell Proliferation CTG (72 h) Mia PaCa-2
[8] = TR-FRET, read-out: KRAS G12D Binding
[9] = 2 hours compound pre-incubation, read-out: KRAS G12D Coupled Exchange
[10] = read-out: 2 h p-ERK (AsPC-1 cells)
[11] = MIA PaCa-2 cells (G12C), 72 h, read-out: G12D/C/V Cell Proliferation CTG (72 h) MIA PaCa-2

Chain of GDP-bound KRAS protein (aa 1-169), containing both G12D and C118A amino acid substitutions (P01116 other isoform, or with tags, fused parts or gaps G12D/C118A): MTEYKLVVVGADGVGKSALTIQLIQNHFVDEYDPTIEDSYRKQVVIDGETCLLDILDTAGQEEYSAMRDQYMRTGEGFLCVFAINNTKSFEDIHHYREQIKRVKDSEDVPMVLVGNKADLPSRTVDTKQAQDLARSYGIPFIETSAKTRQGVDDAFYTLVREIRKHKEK
Chain of His-tagged KRAS G12D protein (P01116 other isoform, or with tags, fused parts or gaps G12D): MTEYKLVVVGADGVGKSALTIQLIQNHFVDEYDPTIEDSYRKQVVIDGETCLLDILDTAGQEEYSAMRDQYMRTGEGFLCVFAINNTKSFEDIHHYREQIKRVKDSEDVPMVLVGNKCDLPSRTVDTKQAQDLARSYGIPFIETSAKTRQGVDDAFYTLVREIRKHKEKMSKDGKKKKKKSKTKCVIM

Structure (SMILES) | IC50 [1, 4] [nM] | IC50 [2, 5] [nM] | IC50 [3, 6] [nM] | IC50 (AsPC-1 cells; AsPC-1, 72 h) [nM] | IC50 (MIA PaCa-2 cells; [7]) [nM] | IC50 [1, 8] [nM] | IC50 [2, 9] [nM] | IC50 [3, 10] [nM] | IC50 (AsPC-1 cells; AsPC-1 cells (G12D), 72 h) [nM] | IC50 (MIA PaCa-2 cells; [11]) [nM]
O=C1CCCc2c(F)ccc3cccc(c23)-c2ncc3c(nc(OC[C@@]45CCCN4C[C@H](F)C5)nc3c2F)N2CC[C@H]3CCN1[C@H]3C2 [Example 72, (27S,31R)-18,33-difluoro-4-(((2R,7aS)-2-fluorotetrahydro-1H-pyrrolo[1,2-a]pyrrol-7a(5H)-yl)methoxy)-1,3,5,9,24-pentaazaheptacyclo[22.5.2.1˜6,10˜.1˜11,15˜.0˜2,7˜.0˜19,32˜.0˜27,31˜]tritriaconta-2,4,6,8,10(33),11,13,15(32),16,18-decaen-23-one] | 3 | 1 | 16 | 230 | 200 | – | – | – | – | –
Cc1cc2[nH]ncc2c2c1CCCOCC(=O)N1CC[C@@H]3CCN(C[C@@H]31)c1nc(OC[C@@]34CCCN3C[C@H](F)C4)nc3c(F)c-2ncc13 [Example 277, (29S,33R)-34-fluoro-4-(((2R,7aS)-2-fluorotetrahydro-1H-pyrrolo[1,2-a]pyrrol-7a(5H)-yl)methoxy)-18-methyl-23-oxa-1,3,5,9,14,15,26-heptaazaheptacyclo[24.5.2.1~6,10~.0~2,7~.0~11,19~.0~12,16~.0~29,33~]tetratriaconta-2,4,6,8,10(34),11,13,16,18-nonaen-25-one] | 3 | 2 | 11 | 88 | 60 | – | – | – | – | –
Fc1c2ncc3c(nc(OC[C@@]45CCCN4C[C@H](F)C5)nc13)N1CCC[C@@H](Cc3nnc(o3)CCc3c(Cl)cc4[nH]ncc4c3-2)C1 [Example 391, (18S)-9-chloro-31-fluoro-25-(((2R,7aS)-2-fluorotetrahydro-1H-pyrrolo[1,2-a]pyrrol-7a(5H)-yl)methoxy)-33-oxa-5,6,14,15,22,24,26,30-octaazaheptacyclo[25.3.1.1~13,16~.1~18,22~.0~2,10~.0~3,7~.0~23,28~]tritriaconta-1(31),2,4,7,9,13,15,23,25,27,29-undecaene] | – | – | – | – | – | 4 | 2 | 36.3 | 265 | 183
O=C1OCCCc2c(Cl)cc3[nH]ncc3c2-c2c(F)cc3c(nc(OC[C@@]45CCCN4C[C@H](F)C5)nc3c2F)N2CCOC[C@H](C2)O1 [Example 187, p-(26S)-18-chloro-9,32-difluoro-4-(((2R,7aS)-2-fluorotetrahydro-1H-pyrrolo[1,2-a]pyrrol-7a(5H)-yl)methoxy)-23,25,28-trioxa-1,3,5,14,15-pentaazahexacyclo[24.4.1.1~6,10~.0~2,7~.0~11,19~.0~12,16~]dotriaconta-2,4,6,8,10(32),11,13,16,18-nonaen-24-one] | 4 | 2 | 4.6 | 76 | 15 | – | – | – | – | –
Cc1cc2[nH]ncc2c2c1CCc1cnc(o1)[C@@H](O)[C@@H]1CCCN(C1)c1nc(OC[C@@]34CCCN3C[C@H](F)C4)nc3c(F)c-2ncc13 [Example 373] | – | – | – | – | – | 7 | 3 | 7 | 21 | 5
Fc1c2ncc3c(nc(OC[C@@]45CCCN4C[C@H](F)C5)nc13)N1CCCC[C@@](F)(COCCCCc3c(Cl)cc4[nH]ncc4c3-2)C1 [Example 399, (26S)-18-chloro-26,32-difluoro-4-(((2R,7aS)-2-fluorotetrahydro-1H-pyrrolo[1,2-a]pyrrol-7a(5H)-yl)methoxy)-24-oxa-1,3,5,9,14,15-hexaazahexacyclo[24.4.1.1~6,10~.0~2,7~.0~11,19~.0~12,16~]dotriaconta-2,4,6,8,10(32),11,13,16,18-nonaene] | – | – | – | – | – | 4 | 2 | 25.9 | 44 | 105

Now from value to compound:

IC50 [1, 4] [nM] | IC50 [2, 5] [nM] | IC50 [3, 6] [nM] | IC50 (AsPC-1 cells; AsPC-1, 72 h) [nM] | IC50 (MIA PaCa-2 cells; [7]) [nM] | IC50 [1, 8] [nM] | IC50 [2, 9] [nM] | IC50 [3, 10] [nM] | IC50 (AsPC-1 cells; AsPC-1 cells (G12D), 72 h) [nM] | IC50 (MIA PaCa-2 cells; [11]) [nM] | Structure (SMILES)
4 | 3 | 15 | 160 | 40 | – | – | – | – | – | Cc1cc2[nH]ncc2c2c1CCCCC(=O)O[C@@H]1COCCN(C1)c1nc(OC[C@@]34CCCN3C[C@H](F)C4)nc3c(F)c-2ncc13 [Example 83, (26S)-32-fluoro-4-(((2R,7aS)-2-fluorotetrahydro-1H-pyrrolo[1,2-a]pyrrol-7a(5H)-yl)methoxy)-18-methyl-25,28-dioxa-1,3,5,9,14,15-hexaazahexacyclo[24.4.1.1~6,10~.0~2,7~.0~11,19~.0~12,16~]dotriaconta-2,4,6,8,10(32),11,13,16,18-nonaen-24-one]
4 | 2 | 12 | 134 | 62 | – | – | – | – | – | CO[C@@H]1C[C@@H](COc2nc3c4cnc(c(F)c4n2)-c2c(c(Cl)cc4[nH]ncc24)CCOC(=O)OC2CC4(CCCN3C4)C2)N(C)C1 (mixture of isomers) [Example 307]
7 | 2 | 38 | 860 | 300 | – | – | – | – | – | Cc1cc2[nH]ncc2c2c1CCCC(=O)OCC1CCCN(C1)c1nc(OC[C@@]34CCCN3C[C@H](F)C4)nc3c(F)c-2ncc13 (stereo partly shown) [Example 104]
5 | 3 | 35.1 | 183 | 33 | – | – | – | – | – | CN1C[C@H](F)C[C@H]1COc1nc2c3cnc(c(F)c3n1)-c1c(c(Cl)cc3[nH]ncc13)CCCOC(=O)O[C@]1(C)COCCN2C1 [Example 318, (26S)-18-chloro-32-fluoro-4-(((2S,4R)-4-fluoro-1-methyl-2-pyrrolidinyl)methoxy)-26-methyl-23,25,28-trioxa-1,3,5,9,14,15-hexaazahexacyclo[24.4.1.1~6,10~.0~2,7~.0~11,19~.0~12,16~]dotriaconta-2,4,6,8,10(32),11,13,16,18-nonaen-24-one]
6 | 3 | 41.1 | 494 | 113 | – | – | – | – | – | CN1CCC[C@H]1COc1nc2c3cnc(c(F)c3n1)-c1c(c(Cl)cc3[nH]ncc13)CCCOC(=O)O[C@@H]1CCCCN2C1 [Example 202, (26R)-18-chloro-32-fluoro-4-(((2S)-1-methyl-2-pyrrolidinyl)methoxy)-23,25-dioxa-1,3,5,9,14,15-hexaazahexacyclo[24.4.1.1~6,10~.0~2,7~.0~11,19~.0~12,16~]dotriaconta-2,4,6,8,10(32),11,13,16,18-nonaen-24-one]
12 | 4 | 101 | 410 | 107 | – | – | – | – | – | C[C@@]12COCCN(C1)c1nc(OC[C@@]34CCCN3C[C@@H](F)C4)nc3c(F)c(ncc13)-c1c(c(Cl)cc3[nH]ncc13)CCCOC(=O)O2 [Example 359, (26S)-18-chloro-32-fluoro-4-(((25,7aS)-2-fluorotetrahydro-1H-pyrrolo[1,2-a]pyrrol-7a(5H)-yl)methoxy)-26-methyl-23,25,28-trioxa-1,3,5,9,14,15-hexaazahexacyclo[24.4.1.1~6,10~.0~2,7~.0~11,19~.0~12,16~]dotriaconta-2,4,6(32),7,9,11,13,16,18-nonaen-24-one]
4 | 3 | 13.8 | 137 | 80 | – | – | – | – | – | CN1C[C@H](F)C[C@H]1COc1nc2c3cnc(c(F)c3n1)-c1c(c(Cl)cc3[nH]ncc13)CCOC(=O)O[C@H]1C[C@@]3(CCCN2C3)C1 [Example 320, (1S,3R)-10-chloro-32-fluoro-24-(((2S,4R)-4-fluoro-1-methyl-2-pyrrolidinyl)methoxy)-4,6-dioxa-13,14,19,23,25,27-hexaazaheptacyclo[25.3.1.1~1,3~.1~18,22~.0~9,17~.0~12,16~.0~21,26~]tritriaconta-9,11,14,16,18(32),19,21,23,25-nonaen-5-one]
5 | 4 | 58 | 480 | 400 | – | – | – | – | – | CN1C[C@H](F)C[C@H]1COc1nc2c3cnc(c(F)c3n1)-c1c(c(Cl)cc3[nH]ncc13)CCCCC(=O)O[C@@H]1CCCCN2C1 [Example 85, (26R)-18-chloro-32-fluoro-4-(((2S,4R)-4-fluoro-1-methyl-2-pyrrolidinyl)methoxy)-25-oxa-1,3,5,9,14,15-hexaazahexacyclo[24.4.1.1~6,10~.0~2,7~.0~11,19~.0~12,16~]dotriaconta-2,4,6,8,10(32),11,13,16,18-nonaen-24-one]
